Data on 30 compounds can be found in paper PMC6271933, “Evaluation of the Toxicity of 5-Aryl-2-Aminoimidazole-Based Biofilm Inhibitors against Eukaryotic Cell Lines, Bone Cells and the Nematode Caenorhabditis elegans” (Molecules, 2014).

Several values for one entry are separate records, joined by “and”; a condition that tells them apart may be missing. Equal entries are not always repeated.

One data set deals with human T-lymphocyte (CEM). Nature of the data set: Cytostatic activity against tumor cell lines (cell number by Coulter counter). Format: cell-based. As to conditions: 72 h, concentration inhibiting cell proliferation by 50%, three days incubation, mean of three repeats. The procedure: (§1) The IC50 was defined as the compound concentration required to inhibit cell proliferation by 50%. The therapeutic index (TI) was calculated as the ratio of the compound concentration producing toxicity (IC50) to the concentration needed to exert the desired ‘therapeutic’ effect on biofilms of Salmonella and Pseudomonas, indicated by the BIC50 (dose needed to prevent biofilm formation by 50%). The higher the therapeutic index, the broader the safety window of the compound.
(§2) Murine leukemia (L1210), human T-lymphocyte (CEM) and human cervix carcinoma (HeLa) were suspended at 300,000–500,000 cells/mL of culture medium, and 100 µL of a cell suspension was added to 100 µL of an appropriate dilution of the test compounds in 200 µL-wells of 96-well microtiter plates. After incubation at 37 °C for two (L1210), three (CEM) or four (HeLa) days, the cell number was determined using a Coulter counter. The IC50 was defined as the compound concentration required to inhibit cell proliferation by 50%.

Data set [1] has as its system human cervix carcinoma (HeLa). Described as above. The format is cell-based. As to conditions: 96 h, concentration inhibiting cell proliferation by 50%, four days incubation, mean of three repeats. Here is the method: as §1, §2
For another data set, the system named is murine leukemia (L1210). The data set is described as above. The format is cell-based. The note with it: Mus musculus, L1210, 48 h; concentration inhibiting cell proliferation by 50%; two days incubation; mean of three repeats. The procedure: as §1, §2
For another data set, the system named is S. Typhimurium biofilm. The note with it: concentration preventing biofilm formation (at 25 °C) by 50%; as previously reported ref 13, 14, 15, 16; read-out: BIC50 S. Typhimurium; cited from earlier work.
The test system of the next data set is P. aeruginosa biofilm. As to conditions: concentration preventing biofilm formation (at 25 °C) by 50%; as previously reported ref 13, 14, 15, 16; read-out: BIC50 P. aeruginosa; cited from earlier work.
Another data set has as its system C. elegans. The format is in vivo, Caenorhabditis elegans. The note with it: 25 µM, after 7 days relative to viability at day 0; mean of at least two repeats. The procedure: Eggs of a double mutant (glp-4Dsek-1D) of C. elegans were grown on NGM/OP50 agar plates (NGM agar plates on the surface inoculated with 100 µL of an overnight culture of OP50 Escherichia coli and stored at 4 °C until use) at 25 °C until all nematodes had reached the L4 stage. Worms were collected and washed with M9 buffer (3 g/L KH2PO4, 6 g/L Na2HPO4, 5 g/L NaCl, 1 mM MgSO4). For toxicity testing, 40 to 50 worms were suspended in 250 μL M9 (supplemented with 10 µg/mL cholesterol, 75 µg/mL ampicillin and 100 µg/mL kanamycin) buffer in each well of 24-well microtiter plates, in the presence or absence (0.5% DMSO control) of 25, 100 or 200 µM of the test compounds and grown for 7 days at 25 °C. The percentage survival of the worms in the presence or absence of anti-biofilm compounds was calculated after 7 days relative to their viability at day 0.

With `Clc1ccc(-c2cnc(NC3CCCC3)[nH]2)cc1Cl` [compound 29], the IC50 was 156 µM in the data set on human T-lymphocyte (CEM); 79.8 µM in data set [1]; 76.1 µM with murine leukemia (L1210); 5.7 µM in the data set with S. Typhimurium biofilm; 7.9 µM in the data set on P. aeruginosa biofilm.
Consider `Nc1ncc(-c2ccc([N+](=O)[O-])cc2)[nH]1` [compound 4], for which the IC50 is 63.7 µM in the data set with human T-lymphocyte (CEM); 108 µM in data set [1]; 83.3 µM with murine leukemia (L1210); 17.6 µM in the data set on S. Typhimurium biofilm; 34.5 µM in the data set with P. aeruginosa biofilm. Moreover, in the data set with C. elegans, the “C. elegans % survival at 25 µM” value was 97.3%.
Take `CCCCCCCCCCCCCn1c(-c2ccc(Cl)cc2)cnc1N` [compound 8]: the IC50 in the data set with human T-lymphocyte (CEM) was 6.4 µM; in data set [1] it was 4.5 µM; with murine leukemia (L1210), 7.2 µM; in the data set with S. Typhimurium biofilm, 19.5 µM; in the data set on P. aeruginosa biofilm, 33.9 µM.
Turning to `Cc1ccc(-c2nc(N)[nH]c2-c2ccc(Cl)cc2)cc1` [compound 32], the IC50 was 10.2 µM in the data set on human T-lymphocyte (CEM), 9.5 µM in data set [1], 12.3 µM in the data set on murine leukemia (L1210) and 12.9 µM in the data set on S. Typhimurium biofilm.
For the compound `CCCCCCCCn1c(-c2ccccc2)cnc1N` [compound 6], the IC50 in the data set on human T-lymphocyte (CEM) was 468 µM; in data set [1], 3 µM; in the data set on murine leukemia (L1210), 3.2 µM; with S. Typhimurium biofilm it was 11.9 µM; in the data set with P. aeruginosa biofilm, 18.5 µM. Moreover, the “C. elegans % survival at 25 µM” value with C. elegans is listed as 92.5%.
`COc1ccc(-c2nc(N)[nH]c2-c2ccccc2)cc1` [compound 30]: the IC50 in the data set on human T-lymphocyte (CEM) was 52.8 µM; in data set [1] it was 45.2 µM; with murine leukemia (L1210) it was 64.1 µM; in the data set with S. Typhimurium biofilm, 77.1 µM.
As for `Nc1nc(-c2ccc(C(F)(F)F)cc2)c(-c2ccc(Cl)cc2)[nH]1` [compound 33], the IC50 with human T-lymphocyte (CEM) is 35.5 µM; in data set [1], 26.1 µM; in the data set on murine leukemia (L1210) it was 41.5 µM; in the data set on S. Typhimurium biofilm, 10.8 µM.
Take `CC(C)CNc1ncc(-c2ccccc2)[nH]1` [compound 19]: the IC50 in the data set with human T-lymphocyte (CEM) is 383 µM; in data set [1] it was 91.4 µM; in the data set on murine leukemia (L1210), 83.6 µM; in the data set on S. Typhimurium biofilm, 4.9 µM; with P. aeruginosa biofilm, 1.2 µM.
In the case of `COc1ccc(-c2cnc(NCCCn3cc(-c4ccc(Br)cc4)nn3)[nH]2)cc1` [compound 38], the IC50 was 597 µM in the data set with human T-lymphocyte (CEM); 16.8 µM in data set [1]; 18.4 µM with murine leukemia (L1210); 91.2 µM in the data set on S. Typhimurium biofilm; 42.7 µM with P. aeruginosa biofilm.
Take `Brc1ccc(-c2cnc(NC3CCCC3)[nH]2)cc1` [compound 28]: the IC50 is 674 µM with human T-lymphocyte (CEM); 32.7 µM in data set [1]; 32.7 µM in the data set with murine leukemia (L1210); 12.1 µM with S. Typhimurium biofilm; 7.2 µM with P. aeruginosa biofilm.
In the case of `CCCCCCCCn1c(-c2ccc(-c3ccccc3)cc2)cnc1N` [compound 10], the IC50 was 8.3 µM in the data set with human T-lymphocyte (CEM); 6.6 µM in data set [1]; 7.8 µM with murine leukemia (L1210); 3.3 µM with S. Typhimurium biofilm; 8.9 µM in the data set with P. aeruginosa biofilm.
With `CCCCNc1ncc(-c2ccccc2)[nH]1` [compound 18], the IC50 with human T-lymphocyte (CEM) is 667 µM; in data set [1], 19.5 µM; in the data set on murine leukemia (L1210) it was 46.4 µM; with S. Typhimurium biofilm, 25.3 µM; in the data set on P. aeruginosa biofilm, 31.8 µM.
With `CCCCNc1ncc(-c2ccc(Cl)cc2)[nH]1` [compound 21], the IC50 with human T-lymphocyte (CEM) was determined as 375 µM; in data set [1] it was 34.7 µM; in the data set with murine leukemia (L1210), 40 µM.
On to `c1ccc(-c2cn(CCCCNc3ncc(-c4ccccc4)[nH]3)nn2)cc1` [compound 37], for which the IC50 in the data set on human T-lymphocyte (CEM) was 459 µM; in data set [1], 107 µM; in the data set on murine leukemia (L1210), 218 µM; in the data set on S. Typhimurium biofilm it was 40 µM; in the data set with P. aeruginosa biofilm it was 19 µM. Further, the “C. elegans % survival at 25 µM” value in the data set on C. elegans came to 86.4%.
Take `c1ccc(-c2cnc(NC3CCCC3)[nH]2)cc1` [compound 20]: the IC50 in the data set on human T-lymphocyte (CEM) is 293 µM; in data set [1], 27.3 µM; in the data set on murine leukemia (L1210), 27.3 µM; in the data set on S. Typhimurium biofilm it was 52.9 µM; with P. aeruginosa biofilm it was 33.8 µM. In addition, the “C. elegans % survival at 25 µM” value in the data set with C. elegans is 98.1%.
Consider `Nc1ncc(-c2ccc(-c3ccccc3)cc2)n1C1CCCC1` [compound 11], for which the IC50 was 2.9 µM with human T-lymphocyte (CEM); 8.2 µM in data set [1]; 4.3 µM with murine leukemia (L1210); 7.5 µM in the data set with S. Typhimurium biofilm; 353 µM in the data set on P. aeruginosa biofilm.
Turning to `Nc1ncc(-c2ccc(-c3ccccc3)cc2)n1C1CCCCCCC1` [compound 13], the IC50 was 4.9 µM with human T-lymphocyte (CEM); 6.9 µM in data set [1]; 6.9 µM in the data set on murine leukemia (L1210); ~22.9 µM and 22.9 µM in the data set on S. Typhimurium biofilm; 3.2 µM in the data set with P. aeruginosa biofilm.
For the compound `CCCCCCCCn1c(-c2ccc(F)cc2)cnc1N` [compound 14], the IC50 in the data set with human T-lymphocyte (CEM) is 7.3 µM; in data set [1], 8.6 µM; in the data set on murine leukemia (L1210), 3.5 µM; with S. Typhimurium biofilm, ~10.8 µM and 10.8 µM; with P. aeruginosa biofilm, 4.9 µM.
Take `CCCCCNc1ncc(-c2ccc(Br)cc2)[nH]1` [compound 27]: the IC50 is 375 µM in the data set on human T-lymphocyte (CEM); 16.3 µM in data set [1]; 14.9 µM in the data set with murine leukemia (L1210); 3.1 µM in the data set on S. Typhimurium biofilm; 10.2 µM in the data set on P. aeruginosa biofilm.
Turning to `Nc1ncc(-c2ccc(-c3ccccc3)cc2)[nH]1` [compound 3], the IC50 in the data set on human T-lymphocyte (CEM) was 13.6 µM; in data set [1] it was 34 µM; in the data set on murine leukemia (L1210) it was 37.4 µM; with S. Typhimurium biofilm, 17.3 µM; in the data set with P. aeruginosa biofilm it was 8.6 µM.
As to `Clc1ccc(-c2cnc(NC3CCCC3)[nH]2)cc1` [compound 24], the IC50 in the data set on human T-lymphocyte (CEM) was 591 µM; in data set [1], 28.8 µM; with murine leukemia (L1210) it was 35.5 µM; in the data set with S. Typhimurium biofilm it was 4.4 µM; in the data set on P. aeruginosa biofilm it was 13.5 µM. The “C. elegans % survival at 25 µM” value in the data set with C. elegans turned out to be 100.1%.
For the compound `Nc1ncc(-c2ccc(-c3ccccc3)cc2)n1C1CCCCCC1` [compound 12], the IC50 in the data set on human T-lymphocyte (CEM) is 5.4 µM; in data set [1], 6.6 µM; with murine leukemia (L1210) it was 8.1 µM; with S. Typhimurium biofilm, ~12.5 µM and 12.5 µM; in the data set on P. aeruginosa biofilm, 6.6 µM.
On to `CCCCCCCn1c(-c2ccc(-c3ccccc3)cc2)cnc1N` [compound 9], for which the IC50 with human T-lymphocyte (CEM) is 8.1 µM; in data set [1], 8.7 µM; with murine leukemia (L1210), 7.5 µM; with S. Typhimurium biofilm it was 9.3 µM; in the data set with P. aeruginosa biofilm, 25.2 µM.
On to `COc1cccc(CCn2c(-c3ccc(Cl)c(Cl)c3)cnc2N)c1` [compound 17], for which the IC50 with human T-lymphocyte (CEM) was 8.6 µM; in data set [1] it was 6.6 µM; in the data set with murine leukemia (L1210), 6.9 µM; in the data set on S. Typhimurium biofilm, more than 400 µM.
With `CC(C)CNc1ncc(-c2ccc(Br)cc2)[nH]1` [compound 26], the IC50 in the data set with human T-lymphocyte (CEM) was 306 µM; in data set [1] it was 22.6 µM; in the data set with murine leukemia (L1210), 31.7 µM; in the data set on S. Typhimurium biofilm, 2.9 µM; in the data set on P. aeruginosa biofilm, 1.2 µM.
With `CCCCCCCCn1c(-c2ccc(SC)cc2)cnc1N` [compound 15, N1-octyl-5-[4-SMePh]-2AI], the IC50 with human T-lymphocyte (CEM) is 7.2 µM; in data set [1], 6.3 µM; with murine leukemia (L1210), 4.1 µM; in the data set on S. Typhimurium biofilm it was 6.7 µM; in the data set on P. aeruginosa biofilm, 2.8 µM.
`CCCCCCCCn1c(-c2cccc(Br)c2)cnc1N` [compound 16]: the IC50 is 9.7 µM with human T-lymphocyte (CEM); 8 µM in data set [1]; 6.9 µM with murine leukemia (L1210); 11.2 µM with S. Typhimurium biofilm; 40.6 µM in the data set with P. aeruginosa biofilm.
In the case of `CCCCCNc1ncc(-c2ccc(Cl)cc2)[nH]1` [compound 23], the IC50 is 323 µM with human T-lymphocyte (CEM); 19.8 µM in data set [1]; 22 µM in the data set with murine leukemia (L1210); more than 400 µM in the data set on S. Typhimurium biofilm; ~6.3 µM and 6.3 µM in the data set on P. aeruginosa biofilm.
With `CCCCCOc1ccc(Cc2nc(N)n(Cc3ccccc3)c2-c2ccc(C)cc2)cc1` [compound 35], the IC50 was 8.4 µM in the data set on human T-lymphocyte (CEM); 14.8 µM in data set [1]; 8.6 µM in the data set with murine leukemia (L1210); 10.3 µM in the data set with S. Typhimurium biofilm; 27.4 µM with P. aeruginosa biofilm.
On to `Nc1nc(-c2ccc(Cl)cc2)c(-c2ccccc2)[nH]1` [compound 31], for which the IC50 with human T-lymphocyte (CEM) is 48.2 µM; in data set [1], 40.8 µM; with murine leukemia (L1210), 59.3 µM; in the data set on S. Typhimurium biofilm, 46.9 µM.
